In patent publication US6225307A, “Viral treatment” (priority 2000, dated 2001):

Tests used:
HIV-1 integrase = HIV-1 integrase (Human immunodeficiency virus type 1 group M subtype B, UniProt P12497); assay: Integrase inhibition assay; type: biochemical
Description: A biochemical integrase assay described by Craigie et at (HIV, vol. 2: A practical Approach) Biochemistry, Molecular Biology and Drug Discovery Ed. J. Karn 1995) to screen agents for their ability to inhibit HIV-1 integrase. In this system, a kinased oligonucleotide serves as the target of 3' processing and the subsequent strand transfer reaction. The 3' processing reaction involves the removal of 2 nucleotides from the 31 ends of the substrate and this is followed by the strand transfer reaction in which the 3' ends are joined to the exposed 5' ends. The 20 μl reaction mixture contains 25 mM MOPS (pH 7.2), […] BSA, 10 mM , β-mercaptoethanol, 10% glycerol, 7.5 mM MnCl2, 25 nM (7 ng) substrate (Oligo's Etc., Wilsonville, Ore.) and 200 nM (128 ng) integrase (NIAID AIDS Research and Reference Reagent Program, Bethesda, Md.). The reaction proceeds at 37° C. for 1-2 hours and is terminated by the addition of 20 μl of sequencing stop solution (USB Amersham, Arlington Heights, Ill.). The reaction products are visualized by autoradiography following electrophoresis in 15% polyacrylamide 6M Urea gel. The substrate migrates as a 30 mer, the product of 3' processing migrates as an N-2 band and the strand transfer products migrate more slowly at various sizes larger than the substrate.

HIV-1 cell line, CEMSKI = assay: Long term in vitro study, CEMSKI cells, reverse transcriptase analysis; type: cell-based; conditions: for Reverse transcriptase data: 7 μg/ml
Protocol: A microtiter-based reveres transcriptase (RT) reaction is utilized (Buckheit et al (1991) AIDS Research and Human Retroviruses 7:295-302). Tritiated thymidine triphosphate (NEN)(TTP) is resuspended in distilled water at 5 Ci/ml. Poly rA and oligo dT are prepared as a stock solution which is kept at -20° C. The RT reaction buffer is prepared fresh on a daily basis and consists of 125 μl 1M EGTA, 125 μl water, 125 μl Triton X-100, 50 μl Tris (pH 7.4), 50 μl MDDT, and 40 μl 1M MgCl2. These three solutions are mixed together in a ratio of 1 part TTP, 2.5 parts poly rA:oligo dT, 2.5 parts reaction buffer and 4 parts distilled water. Ten microliters of this reaction mixture is placed in a round bottom microtiter place and 15 μl of virus containing supernatant is added and mixed. The plate is incubated at 37° C. and incubated for 60 minutes. Following reaction, the reaction volume is spotted onto filter mats, washed 6 times for 5 minutes each in a 5% sodium phosphate buffer, 2 times for 1 minute each in distilled water, 2 times for 1 minute each in 70% ethanol, and then dried. The dried filter mat is placed in a plastic sample bag, Betaplate scintillation fluid is added and the bag is heat sealed. Incorporated radioactivity is quantified utilizing a Wallac Microbeta scintillation counter.
Acute infection of most established human cell lines with HIV- I results in the eventual establishment of a constitutive virus-producing chronically infected cell line. The cells can be passaged for long periods of time in culture without loss of virus production. These cells may be utilized to evaluate the effects of anti-HIV compounds on syncytium formation or to evaluate the effects of anti-HIV compounds on levels of virus production from these cells. […] Each of the cells contains an integrated HIV genome or provirus. […]
CEM-SS cells chronically infected with HIV isolate, for example SKI (CEM-SKI) are cultured in RPM1640 tissue culture medium supplemented with 10% fetal bovine serum and antibiotics. […] After a period of time, usually one week intervals of drug treatment, cells are evaluated to determine if the inhibitory activity of the compound has been affected by treatment of the cells with either compounds. […]
The cell populations contain integrated copies of the HIV genome and constitutively produce HIV at relatively high levels or are latently infected and only produce virus after stimulation with phorbol esters, tumor necrosis factor or IL6(U1 and ACH2). Reductions in virus products were observed when quantifying supernatant reverse transcriptase activity,
Toxicity Values are measured by XTT and activity of the compound in the tests is measured by a Reverse Transcriptase analysis. […]

**Q.** What does the source list for CCC1(c2cccc(OC(=O)Nc3ccc(Cl)cc3)c2)CCCCN(C)C1=O (stereo not shown) [(4-chlorophenyl)-carbamic acid, 3-(hexahydro-3-ethyl-1-methyl-2-oxo-1H-azepin-3-yl) 2 phenyl ester]?
**A.** IC50 (HIV-1 integrase): > 249 µM; activity as an integrase inhibitor (HIV-1 integrase): did not show activity; HIV-1 integrase inhibition, mean (HIV-1 integrase; 0.1 μg/ml): 9908; HIV-1 integrase inhibition, sample 1 (HIV-1 integrase; 0.1 μg/ml): 10151.6; HIV-1 integrase inhibition, sample 2 (HIV-1 integrase; 0.1 μg/ml): 9664.3; remaining activity at 0.1 µg/mL (HIV-1 integrase; 0.1 μg/ml, read-out: % no drug control): 104%; HIV-1 integrase inhibition, mean (HIV-1 integrase; 1 μg/ml): 10075; HIV-1 integrase inhibition, sample 1 (HIV-1 integrase; 1 μg/ml): 9644.6; HIV-1 integrase inhibition, sample 2 (HIV-1 integrase; 1 μg/ml): 10505.5; remaining activity at 1 µg/mL (HIV-1 integrase; 1 μg/ml, read-out: % no drug control): 105%; HIV-1 integrase inhibition, mean (HIV-1 integrase; 10 μg/ml): 10097; HIV-1 integrase inhibition, sample 1 (HIV-1 integrase; 10 μg/ml): 10964.5; HIV-1 integrase inhibition, sample 2 (HIV-1 integrase; 10 μg/ml): 1129.7; remaining activity at 10 µg/mL (HIV-1 integrase; 10 μg/ml, read-out: % no drug control): 116%; HIV-1 integrase inhibition, mean (HIV-1 integrase; 100 μg/ml): 10942; HIV-1 integrase inhibition, sample 1 (HIV-1 integrase; 100 μg/ml): 9648.5; HIV-1 integrase inhibition, sample 2 (HIV-1 integrase; 100 μg/ml): 12235.7; remaining activity at 100 µg/mL (HIV-1 integrase; 100 μg/ml, read-out: % no drug control): 114%; Reverse transcriptase data (HIV-1 cell line, CEMSKI; Day 4): 8474; Reverse transcriptase data (HIV-1 cell line, CEMSKI; Day 11): 7217; Reverse transcriptase data (HIV-1 cell line, CEMSKI; Day 18): 9141; Reverse transcriptase data, continued test (HIV-1 cell line, CEMSKI; run through 222 days): data remained consistent
